Data published in patent publication US5053070A, “Pyrimidine derivatives, preparation processes thereof, herbicide containing the same, and herbicidal compositions containing the same along with other active ingredient” (Mitsui Toatsu Chemicals, Incorporated, priority 1988, dated 1991).

Columns and labels:
Format in all cases: in vivo
cotton = assay: Upland foliar application test (Test 3), crop injury; details: 30 g ai/a, foliar spray at 2-3 leaves, 30th day
Procedure: (§1) Resin-made 1/10000-are pots were filled with the soil of an upland field. Redroot pigweed, common lambsquarters, foxtail meadow, johnsongrass, barnyardgrass, green foxtail, large crabgrass, soybean, peanut and cotton were separately seeded and were allowed to germinate in a green house. When each plant grew to the stage of 2-3 leaves, an emulsion formulated from a predetermined amount of each test compound in a similar manner to the method described in Formulation Example 11 was diluted with water to a predetermined dilution rate and then sprayed at an application rate equal to 5 l per are onto the foliage of each plant by means of a pressure-operated ULV (ultra low volume) sprayer. Influence to the crops and weeds were observed on the 30th day after the spray of the herbicides. The results are shown in Table 4 in which the degree of damages of each test plant and the degree of injury to each crop are shown in a similar manner to Test 2.

peanut = assay: as above; details: 30 g ai/a, foliar spray at 2-3 leaves, 30th day
Procedure: as §1

soybean = assay: as above; details: 30 g ai/a, foliar spray at 2-3 leaves, 30th day
Procedure: as §1

Sagittaria pygmaea [1] = assay: Treatment of soil under submerged condition, pre-emergence (Test 4); details: 30 g ai/a granule, 30 days later
Procedure: (§2) 1/5000-are Wagner pots were filled with soil. Seeds or tubers of barnyardgrass, Monochoria vaginalis, bulrush, Sagittaria pygmaea, Cyperus seroylnus and Eleocharis kuroguwai were seeded or planted under submerged condition. Two pairs of rice seedlings (2-3 leaf stage), which had been reared in advance, were transplanted to each pot and were allowed to germinate in a green house. Each pair consisted of two rice seedlings. One day later (before emergence of weeds), each pot was treated with a granule which had been prepared by processing a predetermined amount of the test composition in accordance with a similar method to the method described in Formulation Example 9. The state of emergence of weeds and the state of injury of rice were observed 30 days later.
(§3) In the table, the degrees of damages of the test plants and the degrees of injury of rice are shown in a similar manner to Example 2.

barnyardgrass [2] = assay: as above; details: 30 g ai/a granule, 30 days later
Procedure: as §2, §3

bulrush [3] = assay: as above; details: 30 g ai/a granule, 30 days later
Procedure: as §2, §3

Sagittaria pygmaea [4] = assay: Treatment of soil under submerged condition, post-emergence (Test 5); details: 30 g ai/a granule, 30 days later
Procedure: as §2, with “serroylnus” for “seroylnus”, “grow” for “germinate”, “When the barnyardgrass grew to two-leaf stage,” for “One day later (before emergence of weeds),”
(§4) In the table, the degrees of damages of the test plants and the degrees of injury of the rice are shown in a similar manner to Example 2.

barnyardgrass [5] = assay: as above; details: 30 g ai/a granule, post-emergence (barnyardgrass two-leaf stage), 30 days later
Procedure: as §2, with “serroylnus” for “seroylnus”, “grow” for “germinate”, “When the barnyardgrass grew to two-leaf stage,” for “One day later (before emergence of weeds),”
as §4

bulrush [6] = assay: as above; details: 30 g ai/a granule, 30 days later
Procedure: as §2, with “serroylnus” for “seroylnus”, “grow” for “germinate”, “When the barnyardgrass grew to two-leaf stage,” for “One day later (before emergence of weeds),”
as §4

green foxtail = assay: Upland soil application test (Test 2); details: 30 g ai/a, soil spray before emergence, 30 days later
Procedure: (§5) Resin-made 1/2500-are pots were filled with the soil of an upland field. After they were fertilized, soybean, peanut and cotton were seeded and 2-3 cm soil covering was applied. Seeds of redroot pigweed, common lambsquarters, barnyardgrass, green foxtail, large crabgrass, foxtail meadow and johnsongrass had been uniformly mixed with the soil. They were allowed to germinate in a green house. One day later (before emergence of weeds), a wettable powder prepared from a predetermined amount of each test compound in a similar manner to the method described in Formulation Example 1 was diluted with water and then sprayed evenly at an application rate equal to 10 l per are onto the surface of the soil by means of a pressure-operated ULV (ultra low volume) sprayer. Influence to the crops and weeds were observed 30 days later. The results are shown in Table 3, in which the degree of damages of each test plant and the degree of injury to each crop were determined by comparing the air-dried weights of the test plant and crop with those of the corresponding plant and crop in untreated pots and are shown in accordance with the following standard: […]

johnsongrass = assay: Upland soil application test (Test 2); details: 30 g ai/a, soil spray before emergence, 30 days later
Procedure: as §5

redroot pigweed = assay: Upland soil application test (Test 2); details: 30 g ai/a, soil spray before emergence, 30 days later
Procedure: as §5

foxtail meadow = assay: Upland soil application test (Test 2); details: 30 g ai/a, soil spray before emergence, 30 days later
Procedure: as §5

barnyardgrass [7] = assay: Upland soil application test (Test 2); details: 30 g ai/a, soil spray before emergence, 30 days later
Procedure: as §5

large crabgrass = assay: Upland soil application test (Test 2); details: 30 g ai/a, soil spray before emergence, 30 days later
Procedure: as §5

common lambsquarters = assay: Upland soil application test (Test 2); details: 30 g ai/a, soil spray before emergence, 30 days later
Procedure: as §5

rice = assay: Treatment of soil under submerged condition, pre-emergence (Test 4), injury; details: 30 g ai/a granule, 30 days later
Procedure: as §2, §3

| SMILES | Injury Cotton (cotton) | Injury Peanut (peanut) | Injury Soybean (soybean) | Herbicidal effects Sagittaria Pygmaea (Sagittaria pygmaea [1]) | Herbicidal effects Barnyardgrass (barnyardgrass [2]) | Herbicidal effects Bulrush (bulrush [3]) | Herbicidal effects Sagittaria Pygmaea (Sagittaria pygmaea [4]) | Herbicidal effects Barnyardgrass (barnyardgrass [5]) | Herbicidal effects Bulrush (bulrush [6]) | Herbicidal effects Green foxtail (green foxtail) | Herbicidal effects Johnsongrass (johnsongrass) | Herbicidal effects Redroot pigweed (redroot pigweed) | Herbicidal effects Foxtail meadow (foxtail meadow) | Herbicidal effects Barnyardgrass (barnyardgrass [7]) | Herbicidal effects Large crabgrass (large crabgrass) | Herbicidal effects Common lambsquarters (common lambsquarters) | Injury Rice (rice) |
| --- | --- | --- | --- | --- | --- | --- | --- | --- | --- | --- | --- | --- | --- | --- | --- | --- | --- |
| COC(=O)c1ccccc1Oc1nc(OC)cc(OC)n1 [A, reference compound] | 5 (0-5 (Death)) | 5 (0-5 (Death)) | 5 (0-5 (Death)) | 4 (6-10 (Severe damages)) | 5 (0-5 (Death)) | 5 (0-5 (Death)) | 4 (6-10 (Severe damages)) | 5 (0-5 (Death)) | 4 (6-10 (Severe damages)) | 5 (0-5 (Death)) | 5 (0-5 (Death)) | 5 (0-5 (Death)) | 5 (0-5 (Death)) | 5 (0-5 (Death)) | 5 (0-5 (Death)) | 4 (6-10 (Severe damages)) | 5 (0-5 (Death)) |
| COc1cc(OC)nc(Oc2ccccc2C=NOCc2ccc(Cl)cc2Cl)n1 [Compound No. 17] | 0 (91-100 (No damages)) | 0 (91-100 (No damages)) | 0 (91-100 (No damages)) | 3 (11-40 (Medium damages)) | 4 (6-10 (Severe damages)) | 4 (6-10 (Severe damages)) | 3 (11-40 (Medium damages)) | 3 (11-40 (Medium damages)) | 4 (6-10 (Severe damages)) | 3 (11-40 (Medium damages)) | 3 (11-40 (Medium damages)) | 3 (11-40 (Medium damages)) | 3 (11-40 (Medium damages)) | 3 (11-40 (Medium damages)) | 3 (11-40 (Medium damages)) | 4 (6-10 (Severe damages)) | 0 (91-100 (No damages)) |
| C=CCON=Cc1ccccc1Oc1nc(OC)cc(OC)n1 [Compound No. 4] | 0 (91-100 (No damages)) | 0 (91-100 (No damages)) | 0 (91-100 (No damages)) | 4 (6-10 (Severe damages)) | 4 (6-10 (Severe damages)) | 4 (6-10 (Severe damages)) | 3 (11-40 (Medium damages)) | 5 (0-5 (Death)) | 4 (6-10 (Severe damages)) | 5 (0-5 (Death)) | 5 (0-5 (Death)) | 4 (6-10 (Severe damages)) | 5 (0-5 (Death)) | 5 (0-5 (Death)) | 4 (6-10 (Severe damages)) | 3 (11-40 (Medium damages)) | 0 (91-100 (No damages)) |
| COc1cc(OC)nc(Oc2ccccc2C=NOCC=Cc2cccc(Cl)c2)n1 [Compound No. 26, 0-(3-chlorocinnamyl)-2-(4,6-dimethoxy-2-pyrimidinyloxy)benzaldxime] | 0 (91-100 (No damages)) | 0 (91-100 (No damages)) | 0 (91-100 (No damages)) | 5 (0-5 (Death)) | 4 (6-10 (Severe damages)) | 4 (6-10 (Severe damages)) | 4 (6-10 (Severe damages)) | 5 (0-5 (Death)) | 4 (6-10 (Severe damages)) | 5 (0-5 (Death)) | 5 (0-5 (Death)) | 5 (0-5 (Death)) | 4 (6-10 (Severe damages)) | 5 (0-5 (Death)) | 5 (0-5 (Death)) | 4 (6-10 (Severe damages)) | 0 (91-100 (No damages)) |
